From patent US11945811B2, “Potassium channel inhibitors” (ACESION PHARMA APS, priority 2021, dated 2024)

The compounds below were run against T1, human SK3 channel (hKCa2.3) (Homo sapiens, UniProt Q9UGI6) (assay: Automated patch clamping (QPatch 16 HT whole-cell recordings)). Details: HEK-293 cells stably expressing hKCa2.3; currents measured at −80 mV; normalized to N-methyl bicuculline; read-out: IC50 in the Automated patch clamping assay (SK3 channel inhibition).
T1 construct: expressed in transfected cells
Assay type: cell-based
Method: Automated whole cell patch-clamp recordings were performed using a QPatch 16 HT system and single-hole Qplates (Sophion, Denmark) on HEK-293 cells stably expressing the human SK3 channel (hKCa2.3). Cells were cultured and prepared for experiments using normal cell culturing procedures. A total of 4-5 million cells were used per experiment. The Qpatch automatically generates giga sealing, whole-cell formation, compound application and recording of current. hKCa2.3 currents were recorded in symmetrical K^+ solutions. The intracellular/pipette solution contained 154 mM KCl, 10 mM HEPES and 10 mM EGTA. CaCl2 is added to give calculated free concentrations of Ca^2+ of 0.4 μM and MgCl2 is added to give a free concentration of 1 mM. In order to maintain a total [K^+] of 156 mM (corresponding to the concentration in the extracellular ringer) a fixed amount of KOH (15 mM) is added, thereafter pH is adjusted with HCl to pH=7.2. Expected osmolarity: 275 mOsm. Sucrose was added to a final osmolarity around 295 mosm. The extracellular solution consisted of (in mM): CaCl2 0.1, MgCl2 3, KCl 150, HEPES 10 and glucose 10, pH=7.4 adjusted with KOH. Osmolarity between 285-295 mosm. The cells were held at 0 mV and hKCa2.3 currents were elicited by a linear voltage ramp from −80 mV to +80 mV (200 ms in duration) applied every 5th second.
The compound application protocol consisted of 12 recording periods lasting 200 s: 1) Baseline recordings in extracellular solution; 2) Application of the positive control N-methyl bicuculline (100 μM), which is characterized by full efficacy, fast on- and off-rate; 3-4) Wash-out; 5-10) Increasing concentrations of test compound to establish an IC50 value; 11-12) Wash-out; 13) positive control with compound NS8593 (N-[(1R)-1,2,3,4-tetrahydro-1-naphthalenyl]-1H-benzimidazol-2-amine) (1 μM) or with N-methyl bicuculline (100 μM). Data were sampled at 10 kHz, 4th order Bessel filter, cut-off frequency 3 kHz. Currents were compensated for run-down. Potency was quantified as the concentration needed to inhibit half of the SK channel activity and reported as an IC50 value.
All effects of compounds of the present invention as tested were normalized to the observed inhibitory effect of N-methyl bicuculline. Currents were measured at −80 mV.

| SMILES | IC50 [µM] |
| --- | --- |
| CC(CO)(Nc1nc2c(Cn3ccoc3=N)cccc2[nH]1)c1cccc(C(F)(F)F)c1 (stereo not drawn) [Example 18, 2-({4-[(2-imino-2,3-dihydro-1,3-oxazol-3-yl)methyl]-1H-1,3-benzodiazol-2-yl}amino)-2-[3-(trifluoromethyl)phenyl]propan-1-ol] | < 1 |
| CC(CO)(Nc1nc2c(Cn3ccoc3=N)cccc2[nH]1)c1ccc(Cl)c(Cl)c1 (stereo not drawn) [Example 19, 2-(3,4-dichlorophenyl)-2-({4-[(2-imino-2,3-dihydro-1,3-oxazol-3-yl)methyl]-1H-1,3-benzodiazol-2-yl}amino)propan-1-ol] | < 1 |
| Cc1oc(=N)n(Cc2cccc3[nH]c(NC(C)(CO)c4ccc(F)c(Cl)c4)nc23)c1C (stereo not drawn) [Example 20, 2-(3-chloro-4-fluorophenyl)-2-({4-[(2-imino-4,5-dimethyl-2,3-dihydro-1,3-oxazol-3-yl)methyl]-1H-1,3-benzodiazol-2-yl}amino)propan-1-ol] | < 1 |
| Cn1nccc1NCc1cccc2[nH]c(NC(C)(CO)c3cccc(C(F)(F)F)c3)nc12 (stereo not drawn) [Example 21, 2-((4-(((1-methyl-1H-pyrazol-5-yl)amino)methyl)-1H-benzo[d]imidazol-2-yl)amino)-2-(3-(trifluoromethyl)phenyl) propan-1-ol] | < 30 |
| Cn1ccnc1NCc1cccc2[nH]c(NC(C)(CO)c3cccc(C(F)(F)F)c3)nc12 (stereo not drawn) [Example 22, 2-((4-(((1-methyl-1H-imidazol-2-yl)amino)methyl)-1H-benzo[d]imidazol-2-yl)amino)-2-(3-(trifluoromethyl)phenyl)propan-1-ol] | < 30 |
| Cc1coc(=N)n1Cc1cccc2[nH]c(NC(C)(CO)c3cccc(C(F)(F)F)c3)nc12 (stereo not drawn) [Example 23, 2-({4-[(2-imino-4-methyl-2,3-dihydro-1,3-oxazol-3-yl)methyl]-1H-1,3-benzodiazol-2-yl}amino)-2-[3-(trifluoromethyl)phenyl]propan-1-ol] | < 1 |
| Cc1cn(Cc2cccc3[nH]c(NC(C)(CO)c4cccc(C(F)(F)F)c4)nc23)c(=N)o1 (stereo not drawn) [Example 24, 2-({4-[(2-imino-5-methyl-2,3-dihydro-1,3-oxazol-3-yl)methyl]-1H-1,3-benzodiazol-2-yl}amino)-2-[3-(trifluoromethyl)phenyl]propan-1-ol] | < 1 |
| CCC(CO)(Nc1nc2c(Cn3ccoc3=N)cccc2[nH]1)c1cccc(C(F)(F)F)c1 (stereo not drawn) [Example 25, 2-({4-[(2-imino-2,3-dihydro-1,3-oxazol-3-yl)methyl]-1H-1,3-benzodiazol-2-yl}amino)-2-[3-(trifluoromethyl)phenyl]butan-1-ol] | < 30 |
| CC(CCO)(Nc1nc2c(Cn3ccoc3=N)cccc2[nH]1)c1cccc(C(F)(F)F)c1 (stereo not drawn) [Example 26, 3-({4-[(2-imino-2,3-dihydro-1,3-oxazol-3-yl)methyl]-1H-1,3-benzodiazol-2-yl}amino)-3-[3-(trifluoromethyl)phenyl]butan-1-ol] | < 30 |
| CC(CO)(Nc1nc2c(Cn3ccoc3=N)cccc2[nH]1)c1cccc(OC(F)(F)F)c1 (stereo not drawn) [Example 27, 2-({4-[(2-imino-2,3-dihydro-1,3-oxazol-3-yl)methyl]-1H-1,3-benzodiazol-2-yl}amino)-2-[3-(trifluoromethoxy)phenyl]propan-1-ol] | < 1 |
| Cc1oc(=N)n(Cc2cccc3[nH]c(NC(C)(CO)c4cccc(C(F)(F)F)c4)nc23)c1C (stereo not drawn) [Example 28, 2-({4-[(2-imino-4,5-dimethyl-2,3-dihydro-1,3-oxazol-3-yl)methyl]-1H-1,3-benzodiazol-2-yl}amino)-2-[3-(trifluoromethyl)phenyl]-propan-1-ol] | < 30 |
| Cc1coc(=N)n1Cc1cccc2[nH]c(NC(C)(CO)c3cccc(OC(F)(F)F)c3)nc12 (stereo not drawn) [Example 29, 2-({4-[(2-imino-4-methyl-2,3-dihydro-1,3-oxazol-3-yl)methyl]-1H-1,3-benzodiazol-2-yl}amino)-2-[3-(trifluoromethoxy)phenyl]propan-1-ol] | < 1 |
| Cc1cn(Cc2cccc3[nH]c(NC(C)(CO)c4cccc(OC(F)(F)F)c4)nc23)c(=N)o1 (stereo not drawn) [Example 30, 2-({4-[(2-imino-5-methyl-2,3-dihydro-1,3-oxazol-3-yl)methyl]-1H-1,3-benzodiazol-2-yl}amino)-2-[3-(trifluoromethoxy)phenyl]-propan-1-ol] | < 1 |
| CC(Nc1ncco1)c1cccc2[nH]c(NC(C)(CO)c3ccc(F)c(Cl)c3)nc12 (stereo not drawn) [Example 31, 2-(3-chloro-4-fluorophenyl)-2-[(4-{1-[(1,3-oxazol-2-yl)amino]ethyl}-1H-1,3-benzodiazol-2-yl)amino]propan-1-ol] | < 30 |
| CC(CO)(Nc1nc2c(Cn3ccsc3=N)cccc2[nH]1)c1ccc(F)c(Cl)c1 (stereo not drawn) [Example 32, 2-(3-chloro-4-fluorophenyl)-2-({4-[(2-imino-2,3-dihydro-1,3-thiazol-3-yl)methyl]-1H-1,3-benzodiazol-2-yl}amino)propan-1-ol] | < 1 |
| CC(CO)(Nc1nc2c(Cn3cc[nH]c3=O)cccc2[nH]1)c1ccc(F)c(Cl)c1 (stereo not drawn) [Example 33, 1-[(2-{[2-(3-chloro-4-fluorophenyl)-1-hydroxypropan-2-yl]amino}-1H-1,3-benzodiazol-4-yl)methyl]-2,3-dihydro-1H-imidazol-2-one] | < 30 |
| CC(CO)(Nc1nc2c(CN3CCNC3=O)cccc2[nH]1)c1ccc(F)c(Cl)c1 (stereo not drawn) [Example 34, 1-[(2-{[2-(3-chloro-4-fluorophenyl)-1-hydroxypropan-2-yl]amino}-1H-1,3-benzodiazol-4-yl)methyl]imidazolidin-2-one] | < 30 |
| CN1CCN(Cc2cccc3[nH]c(NC(C)(CO)c4ccc(F)c(Cl)c4)nc23)C1=O (stereo not drawn) [Example 35, 1-[(2-{[2-(3-chloro-4-fluorophenyl)-1-hydroxypropan-2-yl]amino}-1H-1,3-benzodiazol-4-yl)methyl]-3-methylimidazolidin-2-one] | < 30 |
| CC(CO)(Nc1nc2c(CN3CCSC3=O)cccc2[nH]1)c1ccc(F)c(Cl)c1 (stereo not drawn) [Example 36, 3-[(2-{[2-(3-chloro-4-fluorophenyl)-1-hydroxypropan-2-yl]amino}-1H-1,3-benzodiazol-4-yl)methyl]-1,3-thiazolidin-2-one] | < 30 |
| CC(CO)(Nc1nc2c(CN3CCCC3=O)cccc2[nH]1)c1ccc(F)c(Cl)c1 (stereo not drawn) [Example 37, 1-[(2-{[2-(3-chloro-4-fluorophenyl)-1-hydroxypropan-2-yl]amino}-1H-1,3-benzodiazol-4-yl)methyl]pyrrolidin-2-one] | < 30 |
| CC(CO)(Nc1nc2c(CNc3ncco3)cccc2[nH]1)c1ccc(F)c(Cl)c1 (stereo not drawn) [Example 38, 2-(3-chloro-4-fluorophenyl)-2-[(4-{[(1,3-oxazol-2-yl)amino]methyl}-1H-1,3-benzodiazol-2-yl)amino]propan-1-ol] | < 30 |
